According to patent US6462064B1, “Apoptosis inducing adamantyl derivatives and their usage as anti-cancer agents, especially for cervical cancers and dysplasias” (Galderma Research & Development S.N.C., priority 1996, dated 2002):
“Also recorded” adds a separate entry of the source.

Tests used:
[1] = system: various human cancer cell lines; assay: Anti-cancer activity against human cancer cell lines over a concentration range (FIGS. 2-4); format: cell-based; conditions: retinoid concentrations 10^−9 M to 10^−5 M
Description: FIG. 2 compares the activity of selected adamantyl retinoids according to the invention and all-trans-retinoic acid against a human non-small lung carcinoma cell line.
FIG. 3 compares the activity of selected adamantyl retinoids according to the invention and all-trans-retinoic acid against human prostate adenocarcinoma, human metastatic prostate adenocarcinoma, and human prostate carcinoma cell lines.
FIG. 4 compares the activity of selected adamantyl retinoids according to the invention and all-trans-retinoic acid against a human liver cancer cell line.

[2] = system: human cervical cancer cell lines (C33A cells and Caski cells); assay: Proliferation of human cervical cancer cell lines (Example 33, FIG. 7); format: cell-based
Description: Another experiment was also conducted to compare the effect of three different retinoid compounds according to the invention, i.e., 6-[3-(1-adamantyl)-4-methoxyphenyl]-2-naphthoic acid, 2-[3-(1-adamantyl)-4-methoxyphenyl]-5-benzimidazole carboxylic acid, and 6-[3-(1-adamantyl)-4,5-methylenedioxyphenyl]-2-naphthoic acid, a control (DMSO), and a control retinoid (all-trans retinoic acid) on the proliferation of several human cervical cancer cell lines (C33A cells and Caski cells).

[3] = system: human pancreatic cancer BxPC-3 tumor cells; assay: Human xenograft mouse animal model, pancreatic cancer BxPC-3; format: in vivo; conditions: 80 mg/kg intraperitoneally, starting 28 days after inoculation; compared to vehicle control group; FIG. 5
Description: The anti cancer activity of a compound according to the invention, 6-[3-(1-adamantyl)-4,5-methylenedioxyphenyl]-2-naphthoic acid was also evaluated in a human xenograft mouse animal model containing human pancreatic cancer BxPC-3 tumor cells. Starting twenty-eight days after inoculation of tumor cells, said xenograft containing mice were administered the retinoid compound intraperitoneally at a dosage of 80 mg/kg body weight. Also, a control group of said mice was inoculated under similar conditions with the pharmaceutical vehicle used for formulation (but lacking the retinoid compound).

cancer cells = assay: List of active compounds: types of cancers and precancers active against; format: cell-based
Description: As discussed, the adamantyl retinoid derivatives according to the invention which induce apoptosis are useful for treating many different types of cancers.

[4] = system: cervical cancer cell lines; assay: Apoptosis, cellular DNA fragmentation ELISA (FIG. 8); format: cell-based, human; conditions: eighteen hours; adapalene 1, 5 and 10 μM, tRA 10 μM, ceramide 0.5 mM
Description: In this experiment cells were labeled with BrdU for six hours. After labeling, cells were treated with vehicle (DM50), or with 10 μM tRA, 0.5 mM ceramide or doses of adapalene of 1, 5 and 10 μM for eighteen hours. Apoptosis was measured using a cellular DNA fragmentation ELISA kit (available from Boehringer). […] Therein, one unit represents the value obtained from cells grown in the presence of vehicle alone.

[5] = system: panel of human tumor cell lines; assay: Cell-based high throughput screening assays, percentage of surviving cells; conditions: active = percentage survival of less than 80; FIG. 1
Description: The anti-cancer activity of various adamantyl retinoid compounds according to the invention was compared to all-trans-retinoic acid using cell-based high throughput screening assays. Specifically, the following compounds were tested in such assays: all-trans-retinoic acid, 6[3(1-adamantyl)-4-methoxyphenyl]-2-naphthoic acid, 2-[3-(1-adamantyl)-4-methoxyphenyl]-5-benzimidazole carboxylic acid, 6-[3-(1-adamantyl)-4-hydroxy-5-methoxyphenyl]-2-naphthoic acid, 6-[3-(1-adamantyl)-4-acetoxymethylphenyl]-2-naphthoic acid and 6-[3-(1-adamantyl)-4,5-methylenedioxyphenyl]-2-naphthoic acid.
These compounds were tested against a panel of human tumor cell lines having a variety of tissue origins, and having distinct tumor characteristics. The tumor cell cultures were exposed to the above retinoid compounds for a specific duration. After such exposure, the percentage of surviving cells was then measured using standard assays.

Row | Compound | anti-cancer activity [1] | effect on proliferation of human cervical cell lines [2] | tumor size [3] | Types of Cancers and Precancers Active Against (cancer cells) | induction of apoptosis [4] | activity against human cancers (percentage of surviving cells) [5]
1 | O=C(O)c1ccc2cc(-c3cc4c(c(C56CC7CC(CC(C7)C5)C6)c3)OCO4)ccc2c1 [Compound 6, 6-[3-(1-adamantyl)-4,5-methylenedioxyphenyl]-2-naphthoic acid] | significant anti-cancer activity | strong inhibitory effect | substantial reduction in tumor size | brain, breast, head and neck,; also recorded: kidney, leukemia, lung, lym-; also recorded: phoma, myeloma, ovarian,; also recorded: prostate, skin, liver, cervical; also recorded: (including, e.g., cervical; also recorded: intraepithelial neoplasia I, II,; also recorded: III), |  | 
2 | CC1=C(/C=C/C(C)=C/C=C/C(C)=C/C(=O)O)C(C)(C)CCC1 [all-trans-retinoic acid, reference compound] | did not exhibit similar activity | no significant effect on cell proliferation |  |  | did not induce apoptosis significantly | did not give comparable results
